Test results: US20230130766A1 (SALK INSTITUTE FOR BIOLOGICAL STUDIES, priority 2020, published 2023)

Biological target: T1, ULK1 (Homo sapiens, UniProt O75385)
T1 sequence (O75385 1-1050): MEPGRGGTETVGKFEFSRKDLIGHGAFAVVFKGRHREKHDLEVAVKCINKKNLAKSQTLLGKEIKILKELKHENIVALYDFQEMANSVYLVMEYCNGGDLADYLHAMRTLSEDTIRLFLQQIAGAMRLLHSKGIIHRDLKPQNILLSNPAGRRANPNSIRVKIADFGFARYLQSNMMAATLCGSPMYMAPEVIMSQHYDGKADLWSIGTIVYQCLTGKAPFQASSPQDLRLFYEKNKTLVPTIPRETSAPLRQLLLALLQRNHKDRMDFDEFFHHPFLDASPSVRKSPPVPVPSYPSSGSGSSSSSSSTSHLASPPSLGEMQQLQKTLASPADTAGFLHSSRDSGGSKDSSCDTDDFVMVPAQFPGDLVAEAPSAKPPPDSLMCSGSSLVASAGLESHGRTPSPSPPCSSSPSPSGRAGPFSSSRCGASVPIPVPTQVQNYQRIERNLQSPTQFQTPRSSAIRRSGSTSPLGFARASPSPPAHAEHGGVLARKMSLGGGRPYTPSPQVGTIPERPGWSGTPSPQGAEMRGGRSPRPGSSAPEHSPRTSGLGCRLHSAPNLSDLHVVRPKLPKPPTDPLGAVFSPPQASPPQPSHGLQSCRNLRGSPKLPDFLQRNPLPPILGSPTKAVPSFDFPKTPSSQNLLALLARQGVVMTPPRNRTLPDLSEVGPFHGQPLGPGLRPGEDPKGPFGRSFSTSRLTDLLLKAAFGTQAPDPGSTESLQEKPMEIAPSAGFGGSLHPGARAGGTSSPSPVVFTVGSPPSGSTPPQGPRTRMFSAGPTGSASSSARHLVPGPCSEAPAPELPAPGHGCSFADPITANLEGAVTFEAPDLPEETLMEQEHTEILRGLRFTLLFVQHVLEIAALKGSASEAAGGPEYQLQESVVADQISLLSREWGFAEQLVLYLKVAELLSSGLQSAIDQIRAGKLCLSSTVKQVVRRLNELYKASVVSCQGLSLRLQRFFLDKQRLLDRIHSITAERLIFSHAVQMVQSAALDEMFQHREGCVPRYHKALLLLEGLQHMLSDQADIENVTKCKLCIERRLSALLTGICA
Test: ULK1 inhibition assay
Type: biochemical
Settings: * = tested as a mixture of regioisomers

For `O=C1CCc2cc(Nc3ncc(C(F)(F)F)c(Nc4ccc5c(c4)OCO5)n3)ccc2N1` [124*], the IC50 was < 0.2 µM.
With `COc1cccc(Nc2nc(Nc3ccc(OC(F)(F)F)c(Cl)c3)ncc2C(F)(F)F)c1` [136*] the IC50 was > 2 µM.
Work on `COc1cccc(Nc2nc(Nc3cc4ccccc4cc3O)ncc2C(F)(F)F)c1` [137*] yielded an IC50 of 0.2 to 2 µM.
In the case of `NC(=O)c1cccc(Nc2ncc(C(F)(F)F)c(Nc3ccc4c(c3)OCO4)n2)c1` [138*], the IC50 is reported as < 0.2 µM.
With `FC(F)(F)c1cnc(Nc2ccc(-n3cccc3)cc2)nc1Nc1ccc2c(c1)OCO2` [139*] the IC50 was < 0.2 µM.
In the case of `FC(F)(F)c1cnc(Nc2ccc3c(c2)CCC3)nc1Nc1ccc2c(c1)OCO2` [140*], the IC50 is reported as < 0.2 µM.
For `COc1ccc(Nc2ncc(C(F)(F)F)c(Nc3ccc4c(c3)OCO4)n2)cc1` [144*], the IC50 was < 0.2 µM.
For `FC(F)(F)c1cnc(Nc2cccc(Cl)c2Cl)nc1Nc1ccc2c(c1)OCO2` [147*], the IC50 was > 2 µM.
For `FC(F)(F)c1cnc(Nc2cccc(Oc3ccccc3)c2)nc1Nc1ccc2c(c1)OCO2` [149*], the IC50 was > 2 µM.
For `O=C1CCc2cc(Nc3ncc(C(F)(F)F)c(Nc4ccccc4)n3)ccc2N1` [157*], the IC50 was < 0.2 µM.
With `CNC(=O)c1ccccc1Nc1nc(Nc2ccc(N3CCOCC3)cc2OC)ncc1Cl` [Compound 12] the IC50 was < 0.2 µM.
With `CNC(=O)c1ccccc1Nc1nc(Nc2cc(OC)c(OC)c(OC)c2)ncc1Cl` [Compound 15] the IC50 was < 0.2 µM.
For `CNC(=O)c1ccccc1Nc1nc(Nc2cc(OC)ccc2C)ncc1Cl` [Compound 16], the IC50 was < 0.2 µM.
With `CNC(=O)c1ccccc1Nc1nc(Nc2cc(OC)ccc2C)ncc1Br` [Compound 17] the IC50 was < 0.2 µM.
For `CNC(=O)c1ccccc1Nc1nc(Nc2ccc3c(c2)CCC(=O)N3)ncc1Cl` [Compound 19], the IC50 was < 0.2 µM.
`CNC(=O)c1ccccc1Nc1nc(Nc2ccc3c(c2)CCC(=O)N3)ncc1Br` [Compound 20] was tested, and the IC50 was < 0.2 µM.
With `CNC(=O)c1ccccc1Nc1nc(Nc2ccc3c(c2)CC(=O)N3)ncc1Cl` [Compound 21] the IC50 was < 0.2 µM.
`COc1cc(Nc2ncc(Br)c(Nc3ccccn3)n2)cc(OC)c1OC` [Compound 22] was tested, and the IC50 was < 0.2 µM.
For `CNC(=O)c1ccccc1Nc1nc(Nc2ccc3[nH]ccc3c2)ncc1Br` [Compound 23], the IC50 was < 0.2 µM.
In the case of `COc1ccc(Nc2nc(Nc3cc(OC)c(OC)c(OC)c3)ncc2Cl)cn1` [Compound 24], the IC50 is reported as < 0.2 µM.
For `COc1ccc(Nc2nc(Nc3cc(OC)c(OC)c(OC)c3)ncc2Br)cn1` [Compound 25], the IC50 was < 0.2 µM.
In the case of `COc1ccc(Nc2nc(Nc3ccc(N4CCOCC4)cc3OC)ncc2Cl)cn1` [Compound 27], the IC50 is reported as > 2 µM.
For `COc1ccc(Nc2nc(Nc3ccc4[nH]ccc4c3)ncc2Br)cn1` [Compound 30], the IC50 was < 0.2 µM.
With `COc1cc(Nc2ncc(C(F)(F)F)c(NCc3cccc(S(C)(=O)=O)c3)n2)cc(OC)c1OC` [Compound 31] the IC50 was < 0.2 µM.
`COc1ccc(C)c(Nc2ncc(Cl)c(Nc3ccc(OC)nc3)n2)c1` [Compound 34] was tested, and the IC50 was > 2 µM.
With `COc1ccc(C)c(Nc2ncc(Br)c(Nc3ccc(OC)nc3)n2)c1` [Compound 35] the IC50 was > 2 µM.
For `CNC(=O)c1ccccc1Nc1nc(Nc2cc(OC)c(OC)c(OC)c2)ncc1C(F)(F)F` [Compound 36], the IC50 was > 2 µM.
In the case of `COc1ccc(Nc2nc(Nc3cc(OC)c(OC)c(OC)c3)ncc2C(F)(F)F)cn1` [Compound 37], the IC50 is reported as < 0.2 µM.
For `CNC(=O)c1ccccc1Nc1nc(Nc2ccc(N3CCOCC3)cc2OC)ncc1C(F)(F)F` [Compound 39], the IC50 was < 0.2 µM.
For `COc1ccc(Nc2nc(Nc3ccc(N4CCOCC4)cc3OC)ncc2C(F)(F)F)cn1` [Compound 40], the IC50 was > 2 µM.
In the case of `COc1ccc(C)c(Nc2ncc(Cl)c(NCc3cccc(S(C)(=O)=O)c3)n2)c1` [Compound 41], the IC50 is reported as > 2 µM.
With `CNC(=O)c1ccccc1Nc1nc(Nc2cc(OC)ccc2C)ncc1C(F)(F)F` [Compound 42] the IC50 was < 0.2 µM.
In the case of `O=C1CCc2cc(Nc3ncc(C(F)(F)F)c(NCc4ccccc4)n3)ccc2N1` [Compound 43], the IC50 is reported as < 0.2 µM.
For `CNC(=O)c1ccccc1Nc1nc(Nc2cccc(OC)c2)ncc1Cl` [Compound 44], the IC50 was < 0.2 µM.
`COc1ccc(C)c(Nc2ncc(Cl)c(Nc3cccc(S(=O)(=O)N(C)C)c3)n2)c1` [Compound 45] was tested, and the IC50 was > 2 µM.
For `CNC(=O)c1ccccc1Nc1nc(Nc2ccc3c(c2)OCO3)ncc1Cl` [Compound 49], the IC50 was < 0.2 µM.
In the case of `COc1ccc(C)c(Nc2ncc(C(F)(F)F)c(NCc3cccc(S(C)(=O)=O)c3)n2)c1` [Compound 50], the IC50 is reported as > 2 µM.
For `CNC(=O)c1ccccc1Nc1nc(Nc2ccc3c(c2)OCCO3)ncc1Cl` [Compound 51], the IC50 was < 0.2 µM.
`COc1cc(N2CCOCC2)ccc1Nc1ncc(C(F)(F)F)c(NCc2cccc(S(C)(=O)=O)c2)n1` [Compound 52] was tested, and the IC50 was > 2 µM.
For `CNC(=O)c1ccccc1Nc1nc(Nc2ccccc2C)ncc1Cl` [Compound 53], the IC50 was > 2 µM.
With `COc1ccc(C)c(Nc2ncc(Cl)c(Nc3cccc(CC#N)c3)n2)c1` [Compound 54] the IC50 was > 2 µM.
In the case of `COc1ccc(C)c(Nc2ncc(Cl)c(Nc3nccc(C)n3)n2)c1` [Compound 55], the IC50 is reported as > 2 µM.
With `CS(=O)(=O)c1cccc(CNc2nc(Nc3ccc4c(c3)CCC(=O)N4)ncc2F)c1` [Compound 56] the IC50 was > 2 µM.
With `CNC(=O)c1ccccc1Nc1nc(Nc2cc3c(cc2C)OCO3)ncc1Cl` [Compound 57] the IC50 was < 0.2 µM.
In the case of `O=C1CCc2cc(Nc3ncc(C(F)(F)F)c(Nc4nccs4)n3)ccc2N1` [Compound 58], the IC50 is reported as > 2 µM.
With `CNC(=O)c1ccccc1Nc1ccnc(Nc2cc(OC)c(OC)c(OC)c2)n1` [Compound 60] the IC50 was < 0.2 µM.
For `N#CCc1cccc(Nc2nc(Nc3ccc4c(c3)CCC(=O)N4)ncc2C(F)(F)F)c1` [Compound 61], the IC50 was < 0.2 µM.
`O=C1CCc2cc(Nc3ncc(C(F)(F)F)c(SCc4ccccc4)n3)ccc2N1` [Compound 62] was tested, and the IC50 was < 0.2 µM.
`O=C1CCc2cc(Nc3ncc(C(F)(F)F)c(C#Cc4ccccc4)n3)ccc2N1` [Compound 64] was tested, and the IC50 was > 2 µM.
For `Cc1cnc(Nc2ccc3c(c2)CCC(=O)N3)nc1NCc1cccc(S(C)(=O)=O)c1` [Compound 67], the IC50 was > 2 µM.
For `O=C1CCc2cc(Nc3ncc(C(F)(F)F)c(/C=C/c4ccccc4)n3)ccc2N1` [Compound 69], the IC50 was < 0.2 µM.
For `CNC(=O)c1ccccc1Nc1nc(Nc2cc(OC)c(OC)c(OC)c2)ncc1/C=C/c1ccccc1` [Compound 71], the IC50 was < 0.2 µM.
`O=C1CCc2cc(Nc3ncc(C(F)(F)F)c(-c4ccccc4)n3)ccc2N1` [Compound 72] was tested, and the IC50 was > 2 µM.
For `CNC(=O)c1ccccc1Nc1nc(Nc2cc(OC)c(OC)c(OC)c2)ncc1-c1ccccc1` [Compound 73], the IC50 was < 0.2 µM.
`CNC(=O)c1ccccc1Nc1nc(Nc2ccc3c(c2)CCC(=O)N3)ncc1C(F)(F)F` [Compound 76] was tested, and the IC50 was < 0.2 µM.
`COc1cc(N2CCOCC2)ccc1Nc1ncc(Br)c(Nc2ccccc2S(=O)(=O)N(C)C)n1` [Compound 80] was tested, and the IC50 was < 0.2 µM.
With `O=C1CCc2cc(Nc3ncc(C(F)(F)F)c(OCc4ccccc4)n3)ccc2N1` [Compound 81] the IC50 was < 0.2 µM.
With `COc1c(C)cnc(CNc2nc(Nc3ccc4c(c3)CCC(=O)N4)ncc2C(F)(F)F)c1C` [Compound 82] the IC50 was < 0.2 µM.
`Cc1cccc(Oc2nc(Nc3ccc4c(c3)CCC(=O)N4)ncc2C(F)(F)F)c1C` [Compound 83] was tested, and the IC50 was < 0.2 µM.
`CNC(=O)c1ccccc1Nc1nc(Nc2ccc3c(c2)CCC(=O)N3)ncc1-c1ccccc1` [Compound 89] was tested, and the IC50 was < 0.2 µM.
For `CNC(=O)c1ccccc1Nc1nc(Nc2cc(N3CCOCC3)cc(N3CCOCC3)c2)ncc1C(F)(F)F` [Compound 90], the IC50 was < 0.2 µM.
`CNC(=O)c1ccccc1Oc1nc(Nc2cc(OC)c(OC)c(OC)c2)ncc1C(F)(F)F` [Compound 92] was tested, and the IC50 was < 0.2 µM.
`CNC(=O)c1ccccc1Oc1nc(Nc2ccccc2)ncc1C(F)(F)F` [Compound 99] was tested, and the IC50 was > 2 µM.
For `CNC(=O)c1ccccc1Oc1nc(Nc2cc(Br)ccc2C)ncc1C(F)(F)F` [Compound 100], the IC50 was > 2 µM.
For `CNC(=O)c1ccccc1Oc1nc(Nc2cc(OC)ccc2C)ncc1C(F)(F)F` [Compound 101], the IC50 was > 2 µM.
In the case of `CNC(=O)c1ccccc1Oc1nc(Nc2ccc(C)c(Br)c2)ncc1C(F)(F)F` [Compound 102], the IC50 is reported as > 2 µM.
For `CNC(=O)c1ccccc1Oc1nc(Nc2ccccc2OC)ncc1C(F)(F)F` [Compound 103], the IC50 was > 2 µM.
In the case of `CNC(=O)c1ccccc1Oc1nc(Nc2cc(C)ccc2C)ncc1C(F)(F)F` [Compound 104], the IC50 is reported as > 2 µM.
`CNC(=O)c1ccccc1Oc1nc(Nc2ccc(OC)cc2)ncc1C(F)(F)F` [Compound 105a] was tested, and the IC50 was > 2 µM.
In the case of `COc1ccc(Nc2ncc(C(F)(F)F)c(O)n2)cc1` [Compound 105b], the IC50 is reported as > 2 µM.
For `CNC(=O)c1ccccc1Oc1nc(Nc2ccc(C)cc2Cl)ncc1C(F)(F)F` [Compound 107], the IC50 was > 2 µM.
For `CNC(=O)c1ccccc1Oc1nc(Nc2ccc(Cl)c(Cl)c2)ncc1C(F)(F)F` [Compound 108a], the IC50 was > 2 µM.
In the case of `Oc1nc(Nc2ccc(Cl)c(Cl)c2)ncc1C(F)(F)F` [Compound 108b], the IC50 is reported as > 2 µM.
